Tests used:
DNA = test: Binding affinity to calf thymus DNA assessed as helix melting temperature at 20 uM after 18 hrs; assay type: nucleic-acid assay; details: Bos taurus
ZR-75-1 = test: Growth inhibition of human Zr-75-1 cells by SRB method; assay type: functional
KB = test: Growth inhibition of human KB cells by SRB method; assay type: functional
[1] = Growth inhibition of human Gurav cells by SRB method; assay type: functional
[2] = Growth inhibition of human DWD cells by SRB method; assay type: functional
A2780 = test: Growth inhibition of human A2780 cells by SRB method; assay type: functional
COLO 205 = test: Growth inhibition of human Colo205 cells by SRB method; assay type: functional
A549 = test: Growth inhibition of human A549 cells by SRB method; assay type: functional
PC-3 = test: Growth inhibition of human PC3 cells by SRB method; assay type: functional
SiHa = test: Growth inhibition of human SiHa cells by SRB method; assay type: functional
MCF7 = test: Growth inhibition of human MCF7 cells by SRB method; assay type: functional

| ΔTm (DNA) | GI50 (KB) | GI50 (A2780) | GI50 (COLO 205) | GI50 (A549) | GI50 (PC-3) | GI50 (MCF7) | Structure (SMILES) | GI50 (ZR-75-1) | GI50 [1] | GI50 [2] | GI50 (SiHa) |
| --- | --- | --- | --- | --- | --- | --- | --- | --- | --- | --- | --- |
| 3.6 °C | 7.19 µM | 26 µM | 2.17 µM | 6.12 µM | 29.1 µM | – | COC(=O)c1nnn(CCCCCOc2cc3c(cc2OC)C(=O)N2CCC[C@H]2C=N3)c1C(=O)OC | 1.93 µM | 26.8 µM | 26 µM | 2.15 µM |
| 5.9 °C | 1.92 µM | 0.16 µM | 1.92 µM | 2.41 µM | 0.17 µM | 2.05 µM | COC(=O)c1nnn(CCCCCOc2cc3c(cc2OC)C(=O)N2C[C@@H](n4nnc(C(=O)OC)c4C(=O)OC)C[C@H]2C=N3)c1C(=O)OC | 5.51 µM | 1.82 µM | 0.15 µM | 0.12 µM |
| 4.5 °C | 1.05 µM | 0.19 µM | 2.01 µM | 7.12 µM | – | 2.12 µM | COC(=O)c1nnn(CCCOc2cc3c(cc2OC)C(=O)N2C[C@@H](n4nnc(C(=O)OC)c4C(=O)OC)C[C@H]2C=N3)c1C(=O)OC | – | 2.42 µM | – | 2.17 µM |
| 0 °C | – | – | – | – | – | – | COC(=O)c1nnn(CCCCOc2cc3c(cc2OC)C(=O)N2C[C@@H](n4nnc(C(=O)OC)c4C(=O)OC)C[C@H]2C=N3)c1C(=O)OC | – | – | – | – |

The next lines start with the molecule.

| Structure (SMILES) | ΔTm (DNA) | GI50 (KB) | GI50 (A2780) | GI50 (COLO 205) | GI50 (A549) | GI50 (PC-3) | GI50 (MCF7) | GI50 (ZR-75-1) | GI50 [1] | GI50 [2] | GI50 (SiHa) |
| --- | --- | --- | --- | --- | --- | --- | --- | --- | --- | --- | --- |
| COc1cc2c(cc1O)N=C[C@@H]1CCCN1C2=O | 0.7 °C | 0.17 µM | 0.14 µM | 0.11 µM | 0.16 µM | 0.2 µM | 0.17 µM | 2.37 µM | 0.16 µM | 1.49 µM | 0.17 µM |
| COC(=O)c1nnn([C@H]2C[C@H]3C=Nc4cc(OCc5ccccc5)c(OC)cc4C(=O)N3C2)c1C(=O)OC | 2.2 °C | – | 25.8 µM | 27.9 µM | – | – | 27.6 µM | – | – | 29.7 µM | 2.04 µM |
| COC(=O)c1nnn(CCCCOc2cc3c(cc2OC)C(=O)N2CCC[C@H]2C=N3)c1C(=O)OC | 0 °C | 2.36 µM | 0.13 µM | 0.21 µM | 28.7 µM | 25.4 µM | 30.5 µM | 2.12 µM | 2.39 µM | 2.24 µM | 2.04 µM |
| COC(=O)c1nnn([C@H]2C[C@H]3C=Nc4ccccc4C(=O)N3C2)c1C(=O)OC | 2.3 °C | – | – | – | – | – | – | – | – | – | – |
| COc1cccc2c1C(=O)c1c(O)c3c(c(O)c1C2=O)C[C@@](O)(C(=O)CO)C[C@@H]3O[C@H]1C[C@H](N)[C@H](O)[C@H](C)O1 [DOXORUBICIN] | – | 0.17 µM | 0.17 µM | 0.15 µM | 7.25 µM | 1.81 µM | 0.18 µM | 1.79 µM | 0.17 µM | 0.1 µM | 0.18 µM |
| COC(=O)c1nnn([C@H]2C[C@H]3C=Nc4cc(OC)c(OC)cc4C(=O)N3C2)c1C(=O)OC | 2.8 °C | 26.4 µM | 0.914 µM | 1.09 µM | – | 2.23 µM | 2.17 µM | 2.47 µM | 2.39 µM | 2.26 µM | 0.21 µM |
| COC(=O)c1nnn(CCCOc2cc3c(cc2OC)C(=O)N2CCC[C@H]2C=N3)c1C(=O)OC | 3.1 °C | 26.6 µM | 2.48 µM | 2.09 µM | 24.7 µM | 28.7 µM | – | 2.53 µM | 25.1 µM | 25.5 µM | 2.12 µM |

From ChEMBL document CHEMBL1143216, “Synthesis of 1,2,3-triazole-linked pyrrolobenzodiazepine conjugates employing 'click' chemistry: DNA-binding affinity and anticancer activity” (2008)
